According to paper PMC5575475 (Angewandte Chemie (International Ed. in English), 2017):
Read-outs that look alike come from different tables or passages of the source.

Tests used:
14-3-3β [1] = target: T1, 14-3-3β (Homo sapiens, UniProt P31946); type: binding
T1 sequence (P31946 1-246): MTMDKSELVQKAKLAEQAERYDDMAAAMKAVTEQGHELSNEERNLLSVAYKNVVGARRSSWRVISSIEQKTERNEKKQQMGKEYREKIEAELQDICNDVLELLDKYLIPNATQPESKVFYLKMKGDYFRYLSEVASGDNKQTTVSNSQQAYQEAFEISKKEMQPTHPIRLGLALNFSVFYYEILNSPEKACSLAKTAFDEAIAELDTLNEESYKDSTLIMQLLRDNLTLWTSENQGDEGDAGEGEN

14-3-3β [2] = target: T1, 14-3-3β; type: binding; details: at very low and very high FGG-ERα peptide concentrations
[3] = target: 14‐3‐3β adapter protein (dimer) (UniProt P31946); test: fluorescence polarisation
[4] = target: 14‐3‐3β adapter protein (dimer) (UniProt P31946); test: fluorescence polarisation; remark: listed apart in the source
crystal structure = target: the molecule itself; test: crystal structure
[5] = FGG-ERα titration at constant Q8 concentrations

Q: With `O=C1N2CN3C(=O)N4CN5C(=O)N6CN7C(=O)N8CN9C(=O)N%10CN%11C(=O)N%12CN%13C(=O)N%14CN%15C(=O)N%16CN1C1C2N2CN%17C(=O)N(CN%18C(=O)N(CN%19C(=O)N(CN%20C(=O)N(CN%21C(=O)N(CN%22C(=O)N(CN%23C(=O)N(CN1C2=O)C%16C%15%23)C%14C%13%22)C%12C%11%21)C%10C9%20)C8C7%19)C6C5%18)C4C3%17` (stereo not shown) [Q8, Cucurbit[8]uril] as the molecule, how does the “Q8 concentration at which the enhancement effect appears to saturate” value (14-3-3β [1]; [5]) read?
A: approximately 10 μM

Q: What about the “combinatorial inhibition at high Q8 concentrations” value (14-3-3β [1]; [5]) of the same molecule?
A: no evidence of combinatorial inhibition

Q: What about the “effect of Q8” value (14-3-3β [2]) of the same molecule?
A: negligible

Q: With Cucurbit[7]uril [Q7] as the molecule, how does the “enhancement of apparent affinity of FGG-ERα for 14-3-3” value (14-3-3β [1]; Q7 instead of Q8 (Figure 2E)) read?
A: did not enhance the apparent affinity

Q: With “FGG‐ERα phosphopeptide (15‐mer: N‐terminal FGG motif fused to the wild‐type 14‐3‐3‐binding epitope of estrogen receptor α)” as the molecule, how does the IC50 [3] read?
A: 70 nM

Q: And the IC50 [4]?
A: 1000 nM

B1: truncated 14‐3‐3βΔC variant (domain or fragment)
chain: QGSMTMDKSELVQKAKLAEQAERYDDMAAAMKAVTEQGHELSNEERNLLSVAYKNVVGARRSSWRVISSIEQKTERNEKKQQMGKEYREKIEAELQDICNDVLELLDKYLIPNATQPESKVFYLKMKGDYFRYLSEVASGDNKQTTVSNSQQAYQEAFEISKKEMQPTHPIRLGLALNFSVFYYEILNSPEKACSLAKTAFDEAIAELDTLNEESYKDSTLIMQLLRDNLTLWTSENQGDEGDAGEGEN
Q: With B1 as the molecule, how does the “stoichiometry N” value (crystal structure) read?
A: 2
